Structures can show the parent of a compound that is named as a salt. Starred links: 1 amine or outer side, 2 acyl side, 3 side chain; linkers in the order of their positions; H or OH if unused. Positions of bridges follow the written chain, without caps; N, C: chain ends. Non-standard residues stand in square brackets, D forms with d. Residues, ends and D or L forms follow the SMILES beside them. Chains are numbered I, II in the order given. Actinocin(9to1) = Cc1c2oc3c(C)ccc(C(=O)[*:1])c3nc-2c(C(=O)[*:2])c(N)c1=O; NMeV = CN[C@H](C(=O)O)C(C)C; Sar = CNCC(=O)O
Experiments:
[1] = system: U2OS cells (p53+); test: Potentiation of p53-dependent suppression of expression by antitumor agents (β-galactosidase activity); type: cell-based
Method: U2OS cells (p53+) that had been placed into six-well plates (6 x 10^5 cells per well) on the previous day were infected with AxYp53RECre at the indicated MOIs. Various compounds (actinomycin D, doxorubicin hydrochloride, etoposide, and nocodazole, all from Sigma, USA) were then added at the indicated concentrations. On the next day, the compounds were removed, and AxCAYLLZ was infected at the indicated MOIs. Six days later, crude extracts of infected cells were prepared and assayed for β-galactosidase activity similarly as described in 3-1). […]

[2] = system: p53-Deficient Saos2 cells; test: Cell death specific to p53-deficient cells (ganciclovir sensitivity, viable cell number); type: cell-based, human; details: combination of AxYp53RECre, AxCAYLTK, and ganciclovir; Saos2 versus U20S cells
Method: p53-Deficient Saos2 cells and p53-expressing U20S cells were inoculated then cultured in the presence of 50 ng/ml nocodazole (Sigma, USA) on the next day. Nocodazole was removed on the following day, and the cells were infected with AxYp53RECre at the indicated MOIs. On the day after that, the cells were further infected with AxCAYLTK at the indicated MOIs. Three days later, infected cells were placed into 96-well plates at a quantity of 2000 cells/well, and various concentrations of ganciclovir (Nippon Roche) were added thereto. Seven days later, the number of viable cells was counted using a Cell Titer 96 AQueous Non-Radioactive Cell Proliferation Assay (Promega, USA). […] In this figure, "% viable cell number" refers to the relative number of cells compared to the number of cells in the absence of ganciclovir taken as 100. Mean values of five samples are shown. Error bars show standard deviations.

Cc1c2oc3c(C)ccc(C(=O)N[C@@H]4C(=O)N[C@H](C(C)C)C(=O)N5CCC[C@H]5C(=O)N(C)CC(=O)N(C)[C@@H](C(C)C)C(=O)O[C@@H]4C)c3nc-2c(C(=O)N[C@@H]2C(=O)N[C@H](C(C)C)C(=O)N3CCC[C@H]3C(=O)N(C)CC(=O)N(C)[C@@H](C(C)C)C(=O)O[C@@H]2C)c(N)c1=O [actinomycin D] (I: T[dV]P[Sar][NMeV] / II: T[dV]P[Sar][NMeV]; ester I:1-I:C, II:1-II:C; linker I:N-II:N via Actinocin(9to1))
Remaining β-galactosidase activity ([1]; AxCAYLLS MOI 10, pAxYp53RECre MOI 0, 10 ng/ml actinomycin D (reference)): 100%
Remaining β-galactosidase activity ([1]; AxCAYLLS MOI 10, pAxYp53RECre MOI 30, 10 ng/ml actinomycin D): 2.4%

COc1cccc2c1C(=O)c1c(O)c3c(c(O)c1C2=O)C[C@@](O)(C(=O)CO)C[C@@H]3O[C@H]1C[C@H](N)[C@H](O)[C@H](C)O1 [doxorubicin, doxorubicin hydrochloride]
Remaining β-galactosidase activity ([1]; AxCAYLLS MOI 10, pAxYp53RECre MOI 0, 100 ng/ml doxorubicin (reference)): 100%
Remaining β-galactosidase activity ([1]; AxCAYLLS MOI 10, pAxYp53RECre MOI 30, 100 ng/ml doxorubicin): 0.5%

COc1cc([C@@H]2c3cc4c(cc3[C@@H](O[C@@H]3O[C@@H]5CO[C@@H](C)O[C@H]5[C@H](O)[C@H]3O)[C@H]3COC(=O)[C@H]23)OCO4)cc(OC)c1O [etoposide]
Remaining β-galactosidase activity ([1]; AxCAYLLS MOI 10, pAxYp53RECre MOI 0, 1000 ng/ml etoposide (reference)): 100%
Remaining β-galactosidase activity ([1]; AxCAYLLS MOI 10, pAxYp53RECre MOI 30, 1000 ng/ml etoposide): 0.6%

Nc1nc(O)c2ncn(COC(CO)CO)c2n1 [ganciclovir]
cell death [2]: caused cell death specific to p53-deficient cells

COC(=O)Nc1nc2ccc(C(=O)c3cccs3)cc2[nH]1 [nocodazole]
Remaining β-galactosidase activity ([1]; AxCAYLLS MOI 10, pAxYp53RECre MOI 0, 50 ng/ml nocodazole (reference)): 100%
Remaining β-galactosidase activity ([1]; AxCAYLLS MOI 10, pAxYp53RECre MOI 10, 50 ng/ml nocodazole): 31%
